pEC50: −log10 of the molar value. Like-named read-outs stand apart in the source and are kept apart here.
Columns and labels:
TLR8 = biological target: T1, TLR8 (Homo sapiens, UniProt Q9NR97); assay: In vitro human TLR8 binding reporter assay (HEK-Blue, NF-kB/AP1-inducible SEAP); format: cell-based; details: activity range class, read-out: TLR8 Agonist EC50
T1 construct: human HEK-Blue cells co-expressing a TLR7 or TLR8 gene
T1 sequence (Q9NR97 27-1041): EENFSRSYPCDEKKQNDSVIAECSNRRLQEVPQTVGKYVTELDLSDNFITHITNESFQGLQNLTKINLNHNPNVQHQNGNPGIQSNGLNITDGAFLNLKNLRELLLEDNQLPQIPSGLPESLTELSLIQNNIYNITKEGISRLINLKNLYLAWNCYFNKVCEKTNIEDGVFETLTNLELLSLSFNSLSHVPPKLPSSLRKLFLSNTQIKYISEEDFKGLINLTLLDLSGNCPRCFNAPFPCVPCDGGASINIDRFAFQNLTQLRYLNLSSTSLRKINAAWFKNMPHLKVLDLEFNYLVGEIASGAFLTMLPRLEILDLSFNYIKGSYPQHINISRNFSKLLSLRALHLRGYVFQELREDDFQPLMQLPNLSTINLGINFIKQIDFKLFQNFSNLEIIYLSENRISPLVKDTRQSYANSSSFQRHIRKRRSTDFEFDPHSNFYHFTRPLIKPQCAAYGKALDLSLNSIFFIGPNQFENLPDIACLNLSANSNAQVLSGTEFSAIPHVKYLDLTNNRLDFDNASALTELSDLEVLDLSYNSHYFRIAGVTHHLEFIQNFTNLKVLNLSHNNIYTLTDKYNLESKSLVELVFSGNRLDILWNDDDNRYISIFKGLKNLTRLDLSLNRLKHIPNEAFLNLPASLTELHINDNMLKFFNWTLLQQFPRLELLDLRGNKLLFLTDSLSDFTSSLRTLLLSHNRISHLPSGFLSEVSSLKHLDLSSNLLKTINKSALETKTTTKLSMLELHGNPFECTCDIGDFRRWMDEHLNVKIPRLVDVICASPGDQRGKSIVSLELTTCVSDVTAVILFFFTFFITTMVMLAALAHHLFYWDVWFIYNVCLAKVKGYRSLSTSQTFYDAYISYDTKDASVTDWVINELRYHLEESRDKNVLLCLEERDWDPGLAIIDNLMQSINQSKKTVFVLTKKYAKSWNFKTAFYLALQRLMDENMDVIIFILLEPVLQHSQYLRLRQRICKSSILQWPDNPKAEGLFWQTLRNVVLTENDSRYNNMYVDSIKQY
In short: (§1)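 EC50s come from NF-kB/AP1-driven SEAP secretion in HEK-Blue cells expressing TLR7 or TLR8, measured with Quanti-Blue after an 18 h compound incubation. Maximal response is defined by a 50 μM reference standard.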

TLR7 = biological target: T2, TLR7 (Homo sapiens, UniProt Q9NYK1); assay: In vitro human TLR7 binding reporter assay (HEK-Blue, NF-kB/AP1-inducible SEAP); format: cell-based; details: activity range class, read-out: TLR7 Agonist EC50
T2 construct: human HEK-Blue cells co-expressing a TLR7 or TLR8 gene
T2 sequence (Q9NYK1 27-1049): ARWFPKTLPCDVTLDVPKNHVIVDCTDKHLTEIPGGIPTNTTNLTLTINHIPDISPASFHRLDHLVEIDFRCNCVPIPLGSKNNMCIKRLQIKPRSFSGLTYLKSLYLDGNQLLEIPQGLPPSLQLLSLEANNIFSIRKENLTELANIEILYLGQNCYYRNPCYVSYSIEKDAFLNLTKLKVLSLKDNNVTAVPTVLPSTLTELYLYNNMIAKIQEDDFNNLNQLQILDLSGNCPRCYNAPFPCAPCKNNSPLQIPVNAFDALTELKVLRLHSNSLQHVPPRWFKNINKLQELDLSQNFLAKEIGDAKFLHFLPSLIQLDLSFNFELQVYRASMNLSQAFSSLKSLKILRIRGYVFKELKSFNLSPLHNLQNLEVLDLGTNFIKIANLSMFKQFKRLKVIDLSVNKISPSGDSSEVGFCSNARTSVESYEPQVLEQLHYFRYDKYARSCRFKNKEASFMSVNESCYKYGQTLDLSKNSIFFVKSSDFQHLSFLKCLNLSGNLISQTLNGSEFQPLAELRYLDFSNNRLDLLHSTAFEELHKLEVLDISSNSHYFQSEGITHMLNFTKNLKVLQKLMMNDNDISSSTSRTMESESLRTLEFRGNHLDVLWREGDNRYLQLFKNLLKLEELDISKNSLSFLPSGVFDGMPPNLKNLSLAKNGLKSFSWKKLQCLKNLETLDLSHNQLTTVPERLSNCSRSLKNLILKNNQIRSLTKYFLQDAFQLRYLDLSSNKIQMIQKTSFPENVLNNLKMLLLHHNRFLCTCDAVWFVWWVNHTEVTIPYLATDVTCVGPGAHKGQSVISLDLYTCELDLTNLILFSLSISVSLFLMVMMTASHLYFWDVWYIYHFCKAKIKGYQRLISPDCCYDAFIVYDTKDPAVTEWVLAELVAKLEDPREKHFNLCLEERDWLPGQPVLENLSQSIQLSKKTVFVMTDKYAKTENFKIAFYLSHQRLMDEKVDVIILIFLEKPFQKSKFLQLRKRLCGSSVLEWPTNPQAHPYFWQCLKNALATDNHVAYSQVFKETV
In short: as §1

THP-1 cells = assay: Measurement of IL-1β production, hTRF protocol (second alternative procedure), THP-1 cells; format: cell-based, human; details: Homo sapiens
In short: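 THP-1 cells differentiated overnight with 50 ng/ml PMA, then plated at 50,000 cells/well in RPMI with 2% FBS onto serial compound dilutions (top final concentration 10 μM) for 2 hours at 37° C. Supernatant IL-1β measured by hTRF (antibodies at 1:40, overnight at 4° C), read at 665/615 nm against a standard curve.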

[1] = THP-1, IL-1β production, human, read-out: NLRP3 hILIB EC50
[2] = THP-1, read-out: NLRP3 hILIB EC50

SMILES | pEC50 (TLR8) | pEC50 (TLR7) | pEC50 (THP-1 cells; [1]) | pEC50 (THP-1 cells; [2])
Nc1nc2cc(-c3cc[nH]n3)ccc2c2cn(CCN3Cc4ccccc4C3=O)nc12 [Example 102, 2-{2-[4-amino-7-(1H-pyrazol-3-yl)-2H-pyrazolo[3,4-c]quinolin-2-yl]ethyl}-2,3-dihydro-1H-isoindol-1-one] | 4.00 to 4.70 | 4.00 to 4.70 | 6.39 | –
Nc1nc2cc(-c3cc[nH]n3)ccc2c2cn(CCN3Cc4cc(Cl)ccc4C3=O)nc12 [Example 104, 2-{2-[4-amino-7-(1H-pyrazol-3-yl)-2H-pyrazolo[3,4-c]quinolin-2-yl]ethyl}-5-chloro-2,3-dihydro-1H-isoindol-1-one] | 4.70 to 6.00 | 4.00 to 4.70 | 6.89 | –
CC(C)NCCn1cc2c(n1)c(N)nc1cc(-c3cc[nH]n3)ccc12 [Example 109] | 4.00 to 4.70 | 4.00 to 4.70 | 5.75 | –
Nc1nc2cc(-c3cc[nH]n3)ccc2c2cn(CCNS(=O)(=O)c3ccccc3)nc12 [Example 114, N-{2-[4-amino-7-(1H-pyrazol-3-yl)-2H-pyrazolo[3,4-c]quinolin-2-yl]ethyl}benzenesulfonamide] | < 4.00 | < 4.00 | – | 5.32
CN(C)C(=O)NCCn1cc2c(n1)c(N)nc1cc(-c3cc[nH]n3)ccc12 [Example 116, 1-{2-[4-amino-7-(1H-pyrazol-3-yl)-2H-pyrazolo[3,4-c]quinolin-2-yl]ethyl}-3,3-dimethylurea] | < 4.00 | < 4.00 | – | 5.13
Nc1nc2cc(-c3cc[nH]n3)ccc2c2cn(CCNC(=O)Oc3ccccc3)nc12 [Example 117, phenyl N-{2-[4-amino-7-(1H-pyrazol-3-yl)-2H-pyrazolo[3,4-c]quinolin-2-yl]ethyl}carbamate] | 4.00 to 4.70 | < 4.00 | – | 6.24
CC(C)(C)OC(=O)NCCn1cc2c(n1)c(N)nc1cc(-c3cc[nH]n3)ccc12 [Example 118, tert-butyl N-{2-[4-amino-7-(1H-pyrazol-3-yl)-2H-pyrazolo[3,4-c]quinolin-2-yl]ethyl}carbamate] | < 4.00 | < 4.00 | 6.07 | –
CC(=O)N(C)CCn1cc2c(n1)c(N)nc1cc(-c3cc[nH]n3)ccc12 [Example 119, N-{2-[4-amino-7-(1H-pyrazol-3-yl)-2H-pyrazolo[3,4-c]quinolin-2-yl]ethyl}-N-methylacetamide] | < 4.00 | < 4.00 | 5.04 | –
CN(CCn1cc2c(n1)c(N)nc1cc(-c3cc[nH]n3)ccc12)C(=O)c1ccccc1 [Example 120, N-{2-[4-amino-7-(1H-pyrazol-3-yl)-2H-pyrazolo[3,4-c]quinolin-2-yl]ethyl}-N-methylbenzamide] | 4.00 to 4.70 | < 4.00 | – | 5.73
CN(CCn1cc2c(n1)c(N)nc1cc(-c3cc[nH]n3)ccc12)Cc1ccccc1 [Example 121, 2-{2-[benzyl(methyl)amino]ethyl}-7-(1H-pyrazol-3-yl)-2H-pyrazolo[3,4-c]quinolin-4-amine] | < 4.00 | < 4.00 | – | 6.07
Nc1nc2cc(-c3cc[nH]n3)ccc2c2cn(CCN3CCCC3=O)nc12 [Example 122, 1-{2-[4-amino-7-(1H-pyrazol-3-yl)-2H-pyrazolo[3,4-c]quinolin-2-yl]ethyl}pyrrolidin-2-one] | < 4.00 | < 4.00 | 5.22 | –
Nc1nc2cc(-c3cc[nH]n3)ccc2c2cn(CCCNC(=O)c3ccccc3)nc12 [Example 123, N-{3-[4-amino-7-(1H-pyrazol-3-yl)-2H-pyrazolo[3,4-c]quinolin-2-yl]propyl}benzamide] | < 4.00 | < 4.00 | – | 5.04
Nc1nc2cc(-c3cc[nH]n3)ccc2c2cn(CCCNC(=O)c3ccccn3)nc12 [Example 124] | < 4.00 | < 4.00 | 5.01 | –
CC(=O)NCCCn1cc2c(n1)c(N)nc1cc(-c3cc[nH]n3)ccc12 [Example 126] | < 4.00 | < 4.00 | 5.27 | –

Continued, in another order:

pEC50 (TLR8) | pEC50 (TLR7) | pEC50 (THP-1 cells; [1]) | SMILES | pEC50 (THP-1 cells; [2])
< 4.00 | < 4.00 | 6.19 | Nc1nc2cc(-c3cc[nH]n3)ccc2c2cn(CCN3Cc4ccc(F)cc4C3=O)nc12 [Example 103, 2-{2-[4-amino-7-(1H-pyrazol-3-yl)-2H-pyrazolo[3,4-c]quinolin-2-yl]ethyl}-6-fluoro-2,3-dihydro-1H-isoindol-1-one] | –
< 4.00 | 4.00 to 4.70 | 6.01 | Cc1ccccc1CNCCn1cc2c(n1)c(N)nc1cc(-c3cc[nH]n3)ccc12 [Example 105, 2-(2-{[(2-methylphenyl)methyl]amino}ethyl)-7-(1H-pyrazol-3-yl)-2H-pyrazolo[3,4-c]quinolin-4-amine] | –
4.00 to 4.70 | 4.00 to 4.70 | 5.72 | Nc1nc2cc(-c3cc[nH]n3)ccc2c2cn(CCNCc3cccc(F)c3)nc12 [Example 106] | –
< 4.00 | < 4.00 | 5.58 | Nc1nc2cc(-c3cc[nH]n3)ccc2c2cn(CCNCc3ccc(Cl)cc3)nc12 [Example 107] | –
4.00 to 4.70 | 4.00 to 4.70 | 6.04 | Nc1nc2cc(-c3cc[nH]n3)ccc2c2cn(CCNCc3ccccc3)nc12 [Example 108] | –
4.70 to 6.00 | 4.00 to 4.70 | 4.88 | Nc1nc2cc(-c3cc[nH]n3)ccc2c2cn(CCNCc3cccnc3)nc12 [Example 110] | –
< 4.00 | 4.00 to 4.70 | 5.68 | COc1ccc(CNCCn2cc3c(n2)c(N)nc2cc(-c4cc[nH]n4)ccc23)cc1 [Example 111] | –
< 4.00 | < 4.00 | 5.60 | Nc1nc2cc(-c3cc[nH]n3)ccc2c2cn(CCNCc3ccccn3)nc12 [Example 112] | –
< 4.00 | 4.00 to 4.70 | 5.42 | CS(=O)(=O)NCCn1cc2c(n1)c(N)nc1cc(-c3cc[nH]n3)ccc12 [Example 113, N-{2-[4-amino-7-(1H-pyrazol-3-yl)-2H-pyrazolo[3,4-c]quinolin-2-yl]ethyl}methanesulfonamide] | –
< 4.00 | < 4.00 | 5.11 | Nc1nc2cc(-c3cc[nH]n3)ccc2c2cn(CCNC(=O)Nc3ccccc3)nc12 [Example 115, 3-{2-[4-amino-7-(1H-pyrazol-3-yl)-2H-pyrazolo[3,4-c]quinolin-2-yl]ethyl}-1-phenylurea] | –
< 4.00 | < 4.00 | 5.08 | Nc1nc2cc(-c3cc[nH]n3)ccc2c2cn(CCCNC(=O)c3ccc(F)cn3)nc12 [Example 125] | –
